Results on 26 molecules are retold here after PubChem BioAssay (NCI).

Some test systems named below: SNB-75 CNS; LXFL 529 NSCLC; DLD-1 colon; DMS 114 small cell lung; DMS 273 small cell lung; KM20L2 colon; XF 498 CNS; M19-MEL melanoma; SNB-78 CNS; HOP-18 NSCLC.
Holding throughout (assay): growth of human tumour cells (NCI), 48 h

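Cells were grown in 96-well plates and exposed to each compound for 48 hours at five concentrations; endpoints were interpolated linearly between bracketing concentrations, or set to the highest concentration if not reached. At the TGI there is no net growth.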

In the assay with SNB-75 CNS, `COc1ccc(-c2csc(Cc3nc4c(Br)cc(Br)cc4c(=O)n3-c3ccc(OC)cc3)n2)cc1` had a TGI of more than 100 µM.
Still for that read-out and setting: in the case of `COc1ccccc1/C=C1\S/C(=N/Nc2nc(C)c(C(C)=O)s2)NC1=O` it was 61 µM.
The same measure, in the same setting: with `O=C1CCC2c3ccccc3NCN12` (stereo not drawn) the figure was more than 100 µM; with `CC(C)(C)OC(=O)[C@@H]1ON2O[C@H](OC3CCCC3(c3ccccc3)c3ccccc3)C[C@H]3OC(=O)[C@@H]1[C@H]32` (stereo partly drawn), more than 100 µM; with `CCS(=O)c1c2cc(OC)ccc2nc2ccc(OC)cc12` (stereo not drawn), 38.2 µM.
In the case of `CC(C)(C)[C@H]1CO[C@]2(c3ccccc3)[C@@H]3C[C@@H]3C(=O)N12`, the TGI in the assay on LXFL 529 NSCLC, in the assay with DLD-1 colon, in the assay with DMS 114 small cell lung, in the assay on DMS 273 small cell lung, in the assay with KM20L2 colon and in the assay on SNB-75 CNS was more than 100 µM throughout. The TGI in the assay with XF 498 CNS and with M19-MEL melanoma was more than 100 µM in each case.
As to `Nc1nc(N)c2ncn(CCOC(c3ccccc3)P(=O)(O)O)c2n1` (stereo not drawn), the TGI with DLD-1 colon, with SNB-78 CNS, in the assay with DMS 114 small cell lung, in the assay with DMS 273 small cell lung, in the assay on KM20L2 colon and with SNB-75 CNS was more than 100 µM throughout. For the same molecule, the TGI with XF 498 CNS and with M19-MEL melanoma was more than 100 µM in each case.
In the assay with SNB-75 CNS, `CO[C@]12S[C@@H]3CCCC[C@@]31C(C)(C)C(=O)N2c1ccccc1` had a TGI of more than 100 µM.
Same read-out and setting: in the case of `COC(=O)c1cc(O)c(O)c(O)c1-c1c(O)c(O)c(O)c(SC[C@H](NC(=O)OCc2ccccc2)C(=O)OCc2ccccc2)c1C(=O)OC` it was 68.1 µM.
Consider `COC(=O)CC(C(C(=O)OC)C(=O)OC)N1C(=O)OC(c2ccccc2)C1c1ccccc1` (stereo not drawn), for which the TGI with HOP-18 NSCLC, in the assay on LXFL 529 NSCLC, in the assay on DLD-1 colon, in the assay on DMS 114 small cell lung, with DMS 273 small cell lung and in the assay on KM20L2 colon was more than 100 µM throughout. Further, the TGI with SNB-75 CNS and in the assay with M19-MEL melanoma was more than 100 µM each time.
The molecule `CCOC(=O)C1C(c2ccc(OC)cc2)c2c([nH][nH]c2=O)CC1(C)O` (stereo not drawn) yielded a TGI with SNB-75 CNS of more than 100 µM.
Same read-out and setting: with `COC(=O)Cc1c([C@H]2[C@H](CC(=O)OC)c3ccccc3N2S(=O)(=O)c2ccc(C)cc2)[nH]c2ccccc12` the figure was more than 100 µM.
`COc1cc2c(oc(=O)c3cc4cc([Si](C)(C)C)oc4c(OC)c32)c2cccc(O)c12`: the TGI in the assay on HOP-18 NSCLC, in the assay with LXFL 529 NSCLC, in the assay on DLD-1 colon, with SNB-78 CNS, in the assay on DMS 114 small cell lung and in the assay with DMS 273 small cell lung was more than 100 µM throughout. The TGI with KM20L2 colon, in the assay with SNB-75 CNS, in the assay with XF 498 CNS and in the assay on M19-MEL melanoma was more than 100 µM throughout.
`CN1C(=O)C(C(=O)Nc2ccccn2)C2C[C@@]1(C)Oc1ccccc12` (stereo partly drawn) gave a TGI in the assay on SNB-75 CNS of more than 100 µM.
As to `CCN(CC)C(=S)SCC(=O)Nc1nc2c(s1)CCCC2`, the TGI in the assay on LXFL 529 NSCLC, with DLD-1 colon, in the assay with SNB-78 CNS, with DMS 114 small cell lung, in the assay with DMS 273 small cell lung and with KM20L2 colon was more than 100 µM each time. Further, the TGI in the assay on SNB-75 CNS, in the assay on XF 498 CNS and in the assay on M19-MEL melanoma was more than 100 µM in each case.
Consider `CCOC(=O)NN(C(=O)OCC)C(=C(C1=CCCCC1)N1CCOCC1)N(NC(=O)OCC)C(=O)OCC`, for which the TGI in the assay on SNB-75 CNS is more than 100 µM.
Consider `CCOC(=O)OC1C(Br)C2CCC1(C)C2(C)C` (stereo not drawn), for which the TGI in the assay with SNB-75 CNS stood at 24.6 µM.
Regarding `N#Cc1ccc(Oc2ccccc2)cc1C#N`, the TGI with HOP-18 NSCLC is more than 100 µM; in the assay on LXFL 529 NSCLC it was more than 100 µM; with DLD-1 colon, more than 100 µM; in the assay on SNB-78 CNS, more than 100 µM; in the assay with DMS 114 small cell lung, 59.1 µM; in the assay on DMS 273 small cell lung it was 34.5 µM. In addition, the TGI in the assay on KM20L2 colon, in the assay on SNB-75 CNS, in the assay with XF 498 CNS and with M19-MEL melanoma was more than 100 µM in each case.
With `COCN(C)c1nc(N(C)C)nc(N(C)C)n1`, the TGI in the assay on HOP-18 NSCLC, in the assay with LXFL 529 NSCLC, with DLD-1 colon, with SNB-78 CNS, with DMS 114 small cell lung and with DMS 273 small cell lung was more than 100 µM throughout. In addition, the TGI in the assay on KM20L2 colon, with SNB-75 CNS and in the assay on M19-MEL melanoma was more than 100 µM each time.
In the assay on SNB-75 CNS, `O=[N+]([O-])c1cc(-[n+]2cc([O-])on2)ccc1Cl` showed a TGI of 66.3 µM.
`CC/C(Cl)=N\OC(=O)Nc1ccc(OC)c(C)c1`: the TGI in the assay on SNB-75 CNS was more than 100 µM.
Same read-out and setting: with `CCOC(=O)CSC1NC(C(=O)OC)CC1OC` (stereo not drawn) the figure was more than 100 µM; with `O=C(COc1ccccc1)N(C(=O)N1CCN(c2ccccc2)CC1)S(=O)(=O)c1ccccc1`, 96 µM; with `COC(=O)c1c(C)c2c(c(C)c1C(=O)OC)-c1c(C)ccc3ccc(C)c-2c13`, more than 100 µM.
With `Cn1c2ccccc2c2ccc3c(c21)C(=O)C(c1ccccc1)=CC3=O`, the TGI in the assay with HOP-18 NSCLC was 5.51 µM; with LXFL 529 NSCLC, 33.5 µM; with DLD-1 colon, 64.6 µM; in the assay with SNB-78 CNS it was more than 100 µM; in the assay on DMS 114 small cell lung, 43.2 µM; in the assay on DMS 273 small cell lung, 84 µM. The TGI in the assay with SNB-75 CNS is more than 100 µM; in the assay with M19-MEL melanoma, 59.9 µM.
`CCOC(=O)c1c(N2CCCC2)[nH]c(=O)c(C(c2ccc(Cl)c([N+](=O)[O-])c2)c2c(O)c(C(=O)OCC)c(N3CCCC3)[nH]c2=O)c1O` returned a TGI in the assay with SNB-75 CNS of 34.4 µM.
